Test results from patent US20260283153A1 (priority 2023, published 2026).

Assays:
Phytophthora infestans = assay: whole plant or invertebrate; format: in vivo; settings: in Solanum lycopersicum, foliar, read-out: control of Phytophthora infestans
Pythium ultimum = assay: Pythium ultimum/liquid culture (seedling damping off); format: cell-based; settings: Globisporangium ultimum, liquid culture, growth inhibition determined photometrically 2-3 days after application, compared to untreated control
Method: Mycelia fragments and oospores of a newly grown liquid culture of the fungus are directly mixed into nutrient broth (PDB potato dextrose broth). After placing a (DMSO) solution of test compound into a microtiter plate (96-well format), the nutrient broth containing the fungal mycelia/spore mixture is added. The test plates are incubated at 24° C. and the inhibition of growth is determined photometrically 2-3 days after application.

Plasmopara viticola = assay: whole plant or invertebrate; format: in vivo; settings: foliar, read-out: control of Plasmopara viticola
[1] = tested on: Monographella nivalis (Microdochium nivale); assay: Monographella nivalis (Microdochium nivale)/liquid culture (foot rot cereals); format: cell-based; settings: liquid culture, growth inhibition determined photometrically 4-5 days after application, compared to untreated control
Method: The fungicidal activity of the compounds of the invention have been tested as follows: • Monographella nivalis (Microdochium nivale)/liquid culture (foot rot cereals) Conidia of the fungus from cryogenic storage are directly mixed into nutrient broth (PDB potato dextrose broth). After placing a (DMSO) solution of test compound into a microtiter plate (96-well format), the nutrient broth containing the fungal spores is added. The test plates are incubated at 24° C. and the inhibition of growth is determined photometrically 4-5 days after application.

Compound	pest or weed control at 200 ppm (Phytophthora infestans)	inhibition of growth at 20 ppm (Pythium ultimum)	pest or weed control at 200 ppm (Plasmopara viticola)	inhibition of growth at 20 ppm [1]
COC(=O)Nc1ccc(-c2cnc3cnc(C(=O)N(C)c4ccc(F)c(OC)c4)cn23)cn1 [Compound 4, methyl N-[5-[6-[(4-fluoro-3-methoxy-phenyl)-methyl-carbamoyl]imidazo[1,2-a]pyrazin-3-yl]-2-pyridyl]carbamate]	≥ 80%	≥ 80%		
COC(=O)Nc1ccc(-c2cnc3cnc(C(=O)N(C)c4ccc(C#N)c(OC)c4)cn23)cc1 [Compound 59, methyl N-[4-[6-[(4-cyano-3-methoxy-phenyl)-methyl-carbamoyl]imidazo[1,2-a]pyrazin-3-yl]phenyl]carbamate]	≥ 80%	≥ 80%	≥ 80%	
COc1cc(N(C)C(=O)c2cn3c(-c4ccc(NC(=O)C5CC5)cc4)cnc3cn2)ccc1F [Compound 46, 3-[4-(cyclopropanecarbonylamino)phenyl]-N-(4-fluoro-3-methoxy-phenyl)-N-methyl-imidazo[1,2-a]pyrazine-6-carboxamide]	≥ 80%			
CON(C)C(=O)Nc1ccc(-c2cnc3cnc(C(=O)N(C)c4ccc(Cl)cc4)cn23)cc1 [Compound 5, N-(4-chlorophenyl)-3-[4-[[methoxy(methyl)carbamoyl]amino]phenyl]-N-methyl-imidazo[1,2-a]pyrazine-6-carboxamide]				≥ 80%
COc1cc(N(C)C(=O)c2cn3c(-c4ccc(NC(=O)C5CC5)nc4)cnc3cn2)ccc1F [Compound 50, 3-[6-(cyclopropanecarbonylamino)-3-pyridyl]-N-(4-fluoro-3-methoxy-phenyl)-N-methyl-imidazo[1,2-a]pyrazine-6-carboxamide]	≥ 80%			
CCOC(=O)Nc1ccc(-c2cnc3cnc(C(=O)N(C)c4ccc(Cl)cc4)cn23)cc1 [Compound 8, ethyl N-[4-[6-[(4-chlorophenyl)-methyl-carbamoyl]imidazo[1,2-a]pyrazin-3-yl]phenyl]carbamate]			≥ 80%	≥ 80%
COCN(C(=O)c1cn2c(-c3ccc(NC(=O)OC)nc3)cnc2cn1)c1ccc(F)c(OC)c1 [Compound 1, methyl N-[5-[6-[(4-fluoro-3-methoxy-phenyl)-(methoxymethyl)carbamoyl]imidazo[1,2-a]pyrazin-3-yl]-2-pyridyl]carbamate]	≥ 80%	≥ 80%	≥ 80%	
CC(=O)Nc1ccc(-c2cnc3cnc(C(=O)N(C)c4ccc(F)cc4)cn23)cc1 [Compound 38, 3-(4-acetamidophenyl)-N-(4-fluorophenyl)-N-methyl-imidazo[1,2-a]pyrazine-6-carboxamide]		≥ 80%		
COc1cc(N(C)C(=O)c2cn3c(-c4ccc(NC(C)=O)cc4)cnc3cn2)ccc1F [Compound 51, 3-(4-acetamidophenyl)-N-(4-fluoro-3-methoxy-phenyl)-N-methyl-imidazo[1,2-a]pyrazine-6-carboxamide]	≥ 80%			
COCN(C(=O)c1cn2c(-c3ccc(NC(=O)OC)nc3)cnc2cn1)c1ccc(C#N)c(OC)c1 [Compound 55, methyl N-[5-[6-[(4-cyano-3-methoxy-phenyl)-(methoxymethyl)carbamoyl]imidazo[1,2-a]pyrazin-3-yl]-2-pyridyl]carbamate]		≥ 80%	≥ 80%	
CC(=O)Nc1ccc(-c2cnc3cnc(C(=O)N(C)c4ccc(Br)cc4)cn23)cc1 [Compound 34, 3-(4-acetamidophenyl)-N-(4-bromophenyl)-N-methyl-imidazo[1,2-a]pyrazine-6-carboxamide]		≥ 80%		≥ 80%
COC(=O)Nc1ccc(-c2cnc3cnc(C(=O)N(C)c4ccc(C#N)cc4)cn23)cc1 [Compound 9, methyl N-[4-[6-[(4-cyanophenyl)-methyl-carbamoyl]imidazo[1,2-a]pyrazin-3-yl]phenyl]carbamate]		≥ 80%		
CNC(=O)Nc1ccc(-c2cnc3cnc(C(=O)N(C)c4ccc(Cl)cc4)cn23)cc1 [Compound 6, N-(4-chlorophenyl)-N-methyl-3-[4-(methylcarbamoylamino)phenyl]imidazo[1,2-a]pyrazine-6-carboxamide]			≥ 80%	≥ 80%
COC(=O)Nc1ccc(-c2cnc3cnc(C(=O)N(CC#N)c4ccc(F)c(OC)c4)cn23)cn1 [Compound 2, methyl N-[5-[6-[cyanomethyl-(4-fluoro-3-methoxy-phenyl)carbamoyl]imidazo[1,2-a]pyrazin-3-yl]-2-pyridyl]carbamate]	≥ 80%	≥ 80%		
COC(=O)Nc1ccc(-c2cnc3cnc(C(=O)N4CCCc5cc(F)ccc54)cn23)cn1 [Compound 42, methyl N-[5-[6-(6-fluoro-3,4-dihydro-2H-quinoline-1-carbonyl)imidazo[1,2-a]pyrazin-3-yl]-2-pyridyl]carbamate]	≥ 80%			
COC(=O)Nc1ccc(-c2cnc3cnc(C(=O)N(CC#N)c4ccc(Cl)c(OC)c4)cn23)cn1 [Compound 3, methyl N-[5-[6-[(4-chloro-3-methoxy-phenyl)-(cyanomethyl)carbamoyl]imidazo[1,2-a]pyrazin-3-yl]-2-pyridyl]carbamate]	≥ 80%	≥ 80%		
COC(=O)Nc1ccc(-c2cnc3cnc(C(=O)N(C)c4ccc(Cl)cc4)cn23)cc1 [Compound 28, methyl N-[4-[6-[(4-chlorophenyl)-methyl-carbamoyl]imidazo[1,2-a]pyrazin-3-yl]phenyl]carbamate]		≥ 80%	≥ 80%	≥ 80%
COC(=O)Nc1ccc(-c2cnc3cnc(C(=O)N(C)c4ccc(F)c(OC)c4)cn23)cc1 [Compound 58, methyl N-[4-[6-[(4-fluoro-3-methoxy-phenyl)-methyl-carbamoyl]imidazo[1,2-a]pyrazin-3-yl]phenyl]carbamate]	≥ 80%	≥ 80%	≥ 80%	
COCC(=O)Nc1ccc(-c2cnc3cnc(C(=O)N(C)c4ccc(Cl)cc4)cn23)cc1 [Compound 27, N-(4-chlorophenyl)-3-[4-[(2-methoxyacetyl)amino]phenyl]-N-methyl-imidazo[1,2-a]pyrazine-6-carboxamide]		≥ 80%		
CC(=O)Nc1ccc(-c2cnc3cnc(C(=O)N(C)c4ccc(C#N)cc4)cn23)cc1 [Compound 36, 3-(4-acetamidophenyl)-N-(4-cyanophenyl)-N-methyl-imidazo[1,2-a]pyrazine-6-carboxamide]			≥ 80%	
CC(=O)Nc1ccc(-c2cnc3cnc(C(=O)N(C)c4ccc(Cl)cc4)cn23)cc1 [Compound 37, 3-(4-acetamidophenyl)-N-(4-chlorophenyl)-N-methyl-imidazo[1,2-a]pyrazine-6-carboxamide]	≥ 80%		≥ 80%	
COC(=O)Nc1ccc(-c2cnc3cnc(C(=O)N4CCN(C)c5cc(F)ccc54)cn23)cn1 [Compound 53, methyl N-[5-[6-(6-fluoro-4-methyl-2,3-dihydroquinoxaline-1-carbonyl)imidazo[1,2-a]pyrazin-3-yl]-2-pyridyl]carbamate]		≥ 80%		
